Laboratory results published in patent US20070275948A1, “7-[4-(4-Chlorobenzyloxy)Benzenesulfonyl]-8-Methoxy-3-Methyl-2,3,4,5-Tetrahydro-1h-3-Benzazepinium Maleate Or Tosylate As antipyschotics” (priority 2003, published 2007).

Columns and labels:
[1] = Hygroscopicity / solid-state stability to humidity; conditions: for stability with respect to hygroscopicity and loss of water / changes when exposed to very high humidity: anhydrates; for stability over the free base and over the hydrochloride salt, particularly with respect to hygroscopicity: compared with free base and hydrochloride salt
dopamine D2 receptor = dopamine D2 receptor (Homo sapiens, UniProt P14416); assay: Affinity for dopamine D2 receptor; type: binding
[2] = target: T1, serotonin 5-HT2C receptor (Homo sapiens, UniProt P28335); assay: Antagonist affinity for serotonin 5-HT2C receptor; type: binding
T1 sequence (P28335 33-458): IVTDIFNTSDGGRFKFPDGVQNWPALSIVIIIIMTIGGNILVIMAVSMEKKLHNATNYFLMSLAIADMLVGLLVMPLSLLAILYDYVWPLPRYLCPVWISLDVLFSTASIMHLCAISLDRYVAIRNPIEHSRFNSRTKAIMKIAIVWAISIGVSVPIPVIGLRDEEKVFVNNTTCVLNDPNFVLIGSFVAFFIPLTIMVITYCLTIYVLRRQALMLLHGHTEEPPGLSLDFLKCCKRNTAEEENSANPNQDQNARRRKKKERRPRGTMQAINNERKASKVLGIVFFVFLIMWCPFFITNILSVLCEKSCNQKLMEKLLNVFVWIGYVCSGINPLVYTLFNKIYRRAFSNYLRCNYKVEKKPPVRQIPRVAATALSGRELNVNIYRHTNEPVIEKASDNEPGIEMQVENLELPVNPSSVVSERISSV

dopamine D3 receptor = dopamine D3 receptor (Homo sapiens, UniProt P35462); assay: Affinity for dopamine D3 receptor; type: binding; conditions: for affinity for dopamine D3 relative to D2 receptors: D3 versus D2
Chain of dopamine D3 receptor (P35462 whole entry, species assumed): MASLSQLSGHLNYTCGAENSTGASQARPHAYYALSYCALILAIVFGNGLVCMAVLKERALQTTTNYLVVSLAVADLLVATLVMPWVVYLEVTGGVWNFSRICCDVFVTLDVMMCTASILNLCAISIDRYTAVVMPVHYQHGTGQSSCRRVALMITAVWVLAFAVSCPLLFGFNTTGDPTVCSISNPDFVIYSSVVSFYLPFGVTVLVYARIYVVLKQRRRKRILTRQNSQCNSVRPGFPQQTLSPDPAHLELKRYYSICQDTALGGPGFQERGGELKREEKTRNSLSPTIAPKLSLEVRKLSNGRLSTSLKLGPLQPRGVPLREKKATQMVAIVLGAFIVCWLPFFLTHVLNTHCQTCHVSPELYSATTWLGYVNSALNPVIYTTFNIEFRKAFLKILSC

Chain of dopamine D2 receptor (P14416 whole entry): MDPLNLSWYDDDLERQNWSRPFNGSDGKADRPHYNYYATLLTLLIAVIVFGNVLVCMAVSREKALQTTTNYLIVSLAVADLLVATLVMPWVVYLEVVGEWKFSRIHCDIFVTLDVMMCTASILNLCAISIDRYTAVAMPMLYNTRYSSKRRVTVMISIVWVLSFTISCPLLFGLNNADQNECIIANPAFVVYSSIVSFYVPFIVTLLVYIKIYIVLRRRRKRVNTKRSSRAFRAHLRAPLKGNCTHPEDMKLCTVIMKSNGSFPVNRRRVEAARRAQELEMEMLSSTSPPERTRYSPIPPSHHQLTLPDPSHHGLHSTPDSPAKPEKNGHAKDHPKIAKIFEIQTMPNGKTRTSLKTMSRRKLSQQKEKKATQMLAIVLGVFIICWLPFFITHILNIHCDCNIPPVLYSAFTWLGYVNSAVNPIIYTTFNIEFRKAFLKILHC

Compound	hygroscopicity ([1]; multiple forms, all of those tested)	affinity for dopamine D2 receptors (dopamine D2 receptor)	antagonist affinity for the serotonin 5-HT2C receptor [2]	affinity for dopamine D3 receptors (dopamine D3 receptor)	affinity for dopamine D3 relative to D2 receptors (dopamine D3 receptor)	stability with respect to hygroscopicity and loss of water [1]	changes when exposed to very high humidity [1]	stability over the free base and over the hydrochloride salt, particularly with respect to hygroscopicity [1]
COc1cc2c(cc1S(=O)(=O)c1ccc(OCc3ccc(Cl)cc3)cc1)CCN(C)CC2 [free base, 7-[4-(4-chlorobenzyloxy)benzenesulfonyl]-8-methoxy-3-methyl-2,3,4,5-tetrahydro-1H-3-benzazepine]	hygroscopic	–	–	–	–	–	–	–
COc1cc2c(cc1S(=O)(=O)c1ccc(OCc3ccc(Cl)cc3)cc1)CCN(C)CC2.O=C(O)/C=C\C(=O)O [maleate, 7-[4-(4-chlorobenzyloxy)benzenesulfonyl]-8-methoxy-3-methyl-2,3,4,5-tetrahydro-1H-3-benzazepinium maleate]	–	exhibit affinity	antagonist affinity	exhibit affinity	greater affinity for dopamine D3 than for D2 receptors	particular stability	reversible changes	improved stability
COc1cc2c(cc1S(=O)(=O)c1ccc(OCc3ccc(Cl)cc3)cc1)CCN(C)CC2.Cc1ccc(S(=O)(=O)O)cc1 [tosylate, 7-[4-(4-Chlorobenzyloxy)benzenesulfonyl]-8-methoxy-3-methyl-2,3,4,5-tetrahydro-1H-3-benzazepinium p-toluenesulfonate]	–	exhibit affinity	antagonist affinity	exhibit affinity	greater affinity for dopamine D3 than for D2 receptors	particular stability	reversible changes	improved stability
